# According to ChEMBL document CHEMBL1201861, “Genomics of Drug Sensitity in Cancer screening data, Wellcome Trust Sanger Institute”:
# Legend:
# Test in all cases: cells
# CTV-1 = format: functional, cell-based, Homo sapiens; conditions: Homo sapiens, CTV-1;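 also: growth inhibition of the cell line, read out with a cell viability assay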
# Description: SANGER: Inhibition of human CTV-1 cell growth in a cell viability assay.
# CW-2 = format: functional, cell-based, Homo sapiens; conditions: Homo sapiens, CW-2;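 also: growth inhibition of CW-2 cells, read out by a cell viability assay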
# Description: SANGER: Inhibition of human CW-2 cell growth in a cell viability assay.
# D283 Med = format: functional, cell-based, Homo sapiens; conditions: Homo sapiens, D283 Med
# Description: SANGER: Inhibition of human D-283MED cell growth in a cell viability assay.
# DJM-1 = format: functional, cell-based, Homo sapiens; conditions: Homo sapiens, DJM-1;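 also: growth inhibition of human DJM-1 cells, read out by a cell viability assay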
# Description: SANGER: Inhibition of human DJM-1 cell growth in a cell viability assay.
# EC-GI-10 = format: functional, cell-based, Homo sapiens; conditions: Homo sapiens, EC-GI-10
# Description: SANGER: Inhibition of human EC-GI-10 cell growth in a cell viability assay.
# ES4 = format: functional, cell-based, Homo sapiens; conditions: Homo sapiens, ES4;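 also: growth inhibition of human ES4 cells, read out by a cell viability assay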
# Description: SANGER: Inhibition of human ES4 cell growth in a cell viability assay.
# EW-16 = format: functional, cell-based, Homo sapiens; conditions: Homo sapiens, EW-16;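 also: growth inhibition of human EW-16 cells, read out as cell viability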
# Description: SANGER: Inhibition of human EW-16 cell growth in a cell viability assay.
# GCIY = format: functional, cell-based, Homo sapiens; conditions: Homo sapiens, GCIY;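 also: growth inhibition of the human GCIY cell line, read out by a cell viability assay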
# Description: SANGER: Inhibition of human GCIY cell growth in a cell viability assay.
# GT3TKB = format: functional, cell-based, Homo sapiens; conditions: Homo sapiens, GT3TKB;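 also: growth inhibition of the cell line, read out with a cell viability assay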
# Description: SANGER: Inhibition of human GT3TKB cell growth in a cell viability assay.
# HCC1187 = format: functional, cell-based, Homo sapiens; conditions: Homo sapiens, HCC1187;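 also: growth inhibition of HCC1187 cells, read out with a cell viability assay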
# Description: SANGER: Inhibition of human HCC1187 cell growth in a cell viability assay.
# HEL = format: functional, cell-based, Homo sapiens; conditions: Homo sapiens, HEL;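 also: growth inhibition of HEL cells, read out with a cell viability assay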
# Description: SANGER: Inhibition of human HEL cell growth in a cell viability assay.
# KARPAS-299 = format: functional, cell-based, Homo sapiens; conditions: Homo sapiens, KARPAS-299
# Description: SANGER: Inhibition of human KARPAS-299 cell growth in a cell viability assay.
# KS-1 = format: functional, cell-based, Homo sapiens; conditions: Homo sapiens, KS-1;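 also: growth inhibition of KS-1 cells, read out with a cell viability assay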
# Description: SANGER: Inhibition of human KS-1 cell growth in a cell viability assay.
# LAN-6 = format: functional, cell-based, Homo sapiens; conditions: Homo sapiens, LAN-6;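 also: growth inhibition of LAN-6 cells, determined with a cell viability assay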
# Description: SANGER: Inhibition of human LAN-6 cell growth in a cell viability assay.
# LB2518-MEL = format: functional, cell-based, Homo sapiens; conditions: Homo sapiens, LB2518-MEL;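 also: growth inhibition of human LB2518-MEL cells, measured with a cell viability assay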
# Description: SANGER: Inhibition of human LB2518-MEL cell growth in a cell viability assay.
# MHH-PREB-1 = format: functional, cell-based, Homo sapiens; conditions: Homo sapiens, MHH-PREB-1;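 also: cell viability assay measuring inhibition of proliferation of human MHH-PREB-1 cells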
# Description: SANGER: Inhibition of human MHH-PREB-1 cell growth in a cell viability assay.
# MN-60 = format: functional, cell-based, Homo sapiens; conditions: Homo sapiens, MN-60;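 also: growth inhibition of the MN-60 cell line, determined with a cell viability assay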
# Description: SANGER: Inhibition of human MN-60 cell growth in a cell viability assay.
# MSTO-211H = format: functional, cell-based, Homo sapiens; conditions: Homo sapiens, MSTO-211H
# Description: SANGER: Inhibition of human MSTO-211H cell growth in a cell viability assay.
# NB13 = format: functional, cell-based, Homo sapiens; conditions: Homo sapiens, NB13;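 also: cell viability readout measuring growth inhibition of human NB13 cells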
# Description: SANGER: Inhibition of human NB13 cell growth in a cell viability assay.
# NB5 = format: functional, cell-based, Homo sapiens; conditions: Homo sapiens, NB5;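 also: growth inhibition of NB5 cells, read out as cell viability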
# Description: SANGER: Inhibition of human NB5 cell growth in a cell viability assay.
# NCI-H1155 = format: functional, cell-based, Homo sapiens; conditions: Homo sapiens, NCI-H1155;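 also: cell growth inhibition measured by a viability assay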
# Description: SANGER: Inhibition of human NCI-H1155 cell growth in a cell viability assay.
# NCI-H1304 = format: functional, cell-based, Homo sapiens; conditions: Homo sapiens, NCI-H1304;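 also: growth inhibition of the cancer cell line, measured in a cell viability assay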
# Description: SANGER: Inhibition of human NCI-H1304 cell growth in a cell viability assay.
# NCI-H209 = format: functional, cell-based, Homo sapiens; conditions: Homo sapiens, NCI-H209;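 also: growth inhibition of human NCI-H209 cells, measured by a cell viability assay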
# Description: SANGER: Inhibition of human NCI-H209 cell growth in a cell viability assay.
# NCI-H2126 = format: functional, cell-based, Homo sapiens; conditions: Homo sapiens, NCI-H2126;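 also: growth inhibition of the cancer cell line, determined with a cell viability readout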
# Description: SANGER: Inhibition of human NCI-H2126 cell growth in a cell viability assay.
# NCI-H69 = format: functional, cell-based, Homo sapiens; conditions: Homo sapiens, NCI-H69;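 also: growth inhibition of the cell line, read out with a cell viability assay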
# Description: SANGER: Inhibition of human NCI-H69 cell growth in a cell viability assay.
# SNU1 = format: functional, cell-based, Homo sapiens; conditions: Homo sapiens, SNU1;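 also: growth inhibition of human NCI-SNU-1 cells, measured with a cell viability assay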
# Description: SANGER: Inhibition of human NCI-SNU-1 cell growth in a cell viability assay.
# SNU-5 = format: functional, cell-based, Homo sapiens; conditions: Homo sapiens, SNU-5;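 also: cell viability readout used to measure growth inhibition in human NCI-SNU-5 cells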
# Description: SANGER: Inhibition of human NCI-SNU-5 cell growth in a cell viability assay.
# NH-12 = format: functional, cell-based, Homo sapiens; conditions: Homo sapiens, NH-12;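 also: growth inhibition of NH-12 cells, read out with a cell viability assay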
# Description: SANGER: Inhibition of human NH-12 cell growth in a cell viability assay.
# P30-OHK = format: functional, cell-based, Homo sapiens; conditions: Homo sapiens, P30-OHK;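 also: growth inhibition of the P30-OHK cell line, read out with a cell viability assay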
# Description: SANGER: Inhibition of human P30-OHK cell growth in a cell viability assay.
# PSN1 = format: functional, cell-based, Homo sapiens; conditions: Homo sapiens, PSN1;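 also: suppression of growth of human PSN1 cells, read out by a cell viability assay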
# Description: SANGER: Inhibition of human PSN1 cell growth in a cell viability assay.
# Ramos-2G6-4C10 = format: functional, cell-based, Homo sapiens; conditions: Homo sapiens, Ramos-2G6-4C10;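 also: growth inhibition of the cell line, measured by a cell viability read-out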
# Description: SANGER: Inhibition of human Ramos-2G6-4C10 cell growth in a cell viability assay.
# SBC-1 = format: functional, cell-based, Homo sapiens; conditions: Homo sapiens, SBC-1;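 also: cell viability assay measuring growth inhibition of the SBC-1 cell line, IC50 being the concentration that halves growth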
# Description: SANGER: Inhibition of human SBC-1 cell growth in a cell viability assay.
# SCC-15 = format: functional, cell-based, Homo sapiens; conditions: Homo sapiens, SCC-15;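 also: growth inhibition of SCC-15 cells, read out with a cell viability assay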
# Description: SANGER: Inhibition of human SCC-15 cell growth in a cell viability assay.
# SK-N-FI = format: functional, cell-based, Homo sapiens; conditions: Homo sapiens, SK-N-FI;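 also: cell viability assay measuring growth inhibition of human SK-N-FI cells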
# Description: SANGER: Inhibition of human SK-N-FI cell growth in a cell viability assay.
# SK-NEP-1 = format: functional, cell-based, Homo sapiens; conditions: Homo sapiens, SK-NEP-1;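 also: growth inhibition of human SK-NEP-1 cells, read out by a cell viability assay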
# Description: SANGER: Inhibition of human SK-NEP-1 cell growth in a cell viability assay.
# SW684 = format: functional, cell-based, Homo sapiens; conditions: Homo sapiens, SW684;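 also: growth inhibition of human SW684 cells, measured by a cell viability assay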
# Description: SANGER: Inhibition of human SW684 cell growth in a cell viability assay.
# SW 954 = format: functional, cell-based, Homo sapiens; conditions: Homo sapiens, SW 954;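 also: growth inhibition of SW954 human cancer cells, read out as cell viability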
# Description: SANGER: Inhibition of human SW954 cell growth in a cell viability assay.
# 697 = format: functional, cell-based, Homo sapiens; conditions: Homo sapiens
# Description: SANGER: Inhibition of human 697 cell growth in a cell viability assay.
# A253 cell line = format: functional, cell-based, Homo sapiens; conditions: Homo sapiens, A253;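 also: growth inhibition of A253 cells, read out with a cell viability assay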
# Description: SANGER: Inhibition of human A253 cell growth in a cell viability assay.
# AM-38 = format: functional, cell-based, Homo sapiens; conditions: Homo sapiens, AM-38;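 also: growth inhibition of AM-38 cells of human origin, read out by a cell viability assay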
# Description: SANGER: Inhibition of human AM-38 cell growth in a cell viability assay.
# ATN-1 = format: functional, cell-based, Homo sapiens; conditions: Homo sapiens, ATN-1;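 also: growth inhibition of human ATN-1 cells, read out with a cell viability assay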
# Description: SANGER: Inhibition of human ATN-1 cell growth in a cell viability assay.
# BT-474 = format: functional, cell-based, Homo sapiens; conditions: Homo sapiens, BT-474
# Description: SANGER: Inhibition of human BT-474 cell growth in a cell viability assay.
# TE-8 = format: functional, cell-based, Homo sapiens; conditions: Homo sapiens, TE-8;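 also: growth inhibition of TE-8 cells, measured with a cell viability readout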
# Description: SANGER: Inhibition of human TE-8 cell growth in a cell viability assay.
# TE-9 = format: functional, cell-based, Homo sapiens; conditions: Homo sapiens, TE-9;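 also: cell growth inhibition, measured with a cell viability readout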
# Description: SANGER: Inhibition of human TE-9 cell growth in a cell viability assay.
# U-87 MG = format: functional, cell-based, Homo sapiens, U-87MG ATCC; conditions: Homo sapiens, U-87 MG;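 also: growth inhibition of the cells measured with a viability assay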
# Description: SANGER: Inhibition of human U-87-MG cell growth in a cell viability assay.
# COLO-684 = format: functional, cell-based, Homo sapiens; conditions: Homo sapiens, COLO-684
# Description: SANGER: Inhibition of human COLO-684 cell growth in a cell viability assay.
structure (smiles),measurement,setting,value
COc1cc(N2CCN(C)CC2)ccc1Nc1ncc2c(n1)N(C)c1ccccc1C(=O)N2C,IC50,CTV-1,> 8 µM
same,IC50,CW-2,> 8 µM
same,IC50,D283 Med,> 8 µM
same,IC50,DJM-1,> 8 µM
same,IC50,EC-GI-10,> 8 µM
same,IC50,ES4,> 8 µM
same,IC50,EW-16,> 8 µM
same,IC50,GCIY,> 8 µM
same,IC50,GT3TKB,> 8 µM
same,IC50,HCC1187,> 8 µM
same,IC50,HEL,5.95 µM
same,IC50,KARPAS-299,> 8 µM
same,IC50,KS-1,5.38 µM
same,IC50,LAN-6,7.97 µM
same,IC50,LB2518-MEL,> 8 µM
same,IC50,MHH-PREB-1,3.84 µM
same,IC50,MN-60,> 8 µM
same,IC50,MSTO-211H,> 8 µM
same,IC50,NB13,> 8 µM
same,IC50,NB5,> 8 µM
same,IC50,NCI-H1155,> 8 µM
same,IC50,NCI-H1304,> 8 µM
same,IC50,NCI-H209,> 8 µM
same,IC50,NCI-H2126,> 8 µM
same,IC50,NCI-H69,> 8 µM
same,IC50,SNU1,> 8 µM
same,IC50,SNU-5,> 8 µM
same,IC50,NH-12,> 8 µM
same,IC50,P30-OHK,> 8 µM
same,IC50,PSN1,> 8 µM
same,IC50,Ramos-2G6-4C10,5.67 µM
same,IC50,SBC-1,> 8 µM
same,IC50,SCC-15,> 8 µM
same,IC50,SK-N-FI,> 8 µM
same,IC50,SK-NEP-1,> 8 µM
same,IC50,SW684,> 8 µM
same,IC50,SW 954,4.85 µM
same,IC50,697,0.654 µM
same,IC50,A253 cell line,> 8 µM
same,IC50,AM-38,> 8 µM
same,IC50,ATN-1,> 8 µM
same,IC50,BT-474,> 8 µM
same,IC50,TE-8,> 8 µM
same,IC50,TE-9,> 8 µM
same,IC50,U-87 MG,> 8 µM
same,IC50,COLO-684,> 8 µM
CC[C@H](CO)Nc1nc(NCc2ccccc2)c2ncn(C(C)C)c2n1 [SELICICLIB],IC50,CTV-1,> 16 µM
same,IC50,CW-2,> 16 µM
same,IC50,D283 Med,> 16 µM
same,IC50,DJM-1,> 16 µM
same,IC50,EC-GI-10,> 16 µM
same,IC50,ES4,> 16 µM
same,IC50,EW-16,> 16 µM
same,IC50,GCIY,12.9 µM
same,IC50,GT3TKB,> 16 µM
same,IC50,HCC1187,> 16 µM
same,IC50,HEL,> 16 µM
same,IC50,KARPAS-299,> 16 µM
same,IC50,KS-1,9.46 µM
same,IC50,LAN-6,> 16 µM
same,IC50,LB2518-MEL,> 16 µM
same,IC50,MHH-PREB-1,> 16 µM
same,IC50,MN-60,> 16 µM
same,IC50,MSTO-211H,> 16 µM
same,IC50,NB13,> 16 µM
same,IC50,NB5,> 16 µM
same,IC50,NCI-H1155,> 16 µM
same,IC50,NCI-H1304,> 16 µM
same,IC50,NCI-H209,> 16 µM
same,IC50,NCI-H2126,> 16 µM
same,IC50,NCI-H69,> 16 µM
same,IC50,SNU1,> 16 µM
same,IC50,SNU-5,> 16 µM
same,IC50,NH-12,> 16 µM
same,IC50,P30-OHK,> 16 µM
same,IC50,PSN1,> 16 µM
same,IC50,Ramos-2G6-4C10,> 16 µM
same,IC50,SBC-1,> 16 µM
same,IC50,SCC-15,> 16 µM
same,IC50,SK-N-FI,> 16 µM
same,IC50,SK-NEP-1,> 16 µM
same,IC50,SW684,> 16 µM
same,IC50,SW 954,> 16 µM
same,IC50,697,12.6 µM
same,IC50,A253 cell line,> 16 µM
same,IC50,AM-38,> 16 µM
same,IC50,ATN-1,> 16 µM
same,IC50,BT-474,> 16 µM
same,IC50,TE-8,> 16 µM
same,IC50,TE-9,> 16 µM
same,IC50,U-87 MG,> 16 µM
same,IC50,COLO-684,> 16 µM
COc1cc2ncn(-c3cc(OCc4ccccc4S(C)(=O)=O)c(C#N)s3)c2cc1OC [GSK-319347A],IC50,CTV-1,> 5 µM
same,IC50,CW-2,> 5 µM
same,IC50,D283 Med,> 5 µM
same,IC50,DJM-1,> 5 µM
same,IC50,EC-GI-10,> 5 µM
same,IC50,ES4,> 5 µM
same,IC50,EW-16,> 5 µM
same,IC50,GCIY,> 5 µM
same,IC50,GT3TKB,> 5 µM
same,IC50,HCC1187,> 5 µM
same,IC50,HEL,> 5 µM
same,IC50,KARPAS-299,> 5 µM
same,IC50,KS-1,> 5 µM
same,IC50,LAN-6,> 5 µM
same,IC50,LB2518-MEL,> 5 µM
same,IC50,MHH-PREB-1,> 5 µM
same,IC50,MN-60,> 5 µM
same,IC50,MSTO-211H,> 5 µM
same,IC50,NB13,> 5 µM
same,IC50,NB5,> 5 µM
same,IC50,NCI-H1155,> 5 µM
same,IC50,NCI-H1304,> 5 µM
same,IC50,NCI-H209,> 5 µM
same,IC50,NCI-H2126,> 5 µM
same,IC50,NCI-H69,> 5 µM
same,IC50,SNU1,> 5 µM
same,IC50,SNU-5,> 5 µM
same,IC50,NH-12,> 5 µM
same,IC50,P30-OHK,> 5 µM
same,IC50,PSN1,> 5 µM
same,IC50,Ramos-2G6-4C10,> 5 µM
same,IC50,SBC-1,> 5 µM
same,IC50,SCC-15,> 5 µM
same,IC50,SK-N-FI,> 5 µM
same,IC50,SK-NEP-1,> 5 µM
same,IC50,SW684,> 5 µM
same,IC50,SW 954,> 5 µM
same,IC50,697,> 5 µM
same,IC50,A253 cell line,> 5 µM
same,IC50,AM-38,> 5 µM
same,IC50,ATN-1,> 5 µM
same,IC50,BT-474,> 5 µM
same,IC50,TE-8,> 5 µM
same,IC50,TE-9,> 5 µM
same,IC50,U-87 MG,> 5 µM
same,IC50,COLO-684,> 5 µM
